Values of other authors, collected in US20120009125A1, “APOE4 AND APOJ BIOMARKER-BASED PREVENTION AND TREATMENT OF DEMENTIA” (priority 2010, published 2012).
Read-outs that look alike come from different tables or passages of the source.

What was measured:
Hsp70, Hsp90, and Hsp105 = settings: cell model
HSPs = settings: oral administration

CC(=O)CC/C=C(\C)CC/C=C(\C)CC/C=C(\C)CCC=C(C)C [GGA, (9E;13E)-6,10,14,18-tetramethyl-5,9,13,17-nonadecatetraen-2-one]
levels of Hsp70, Hsp90, and Hsp105 (Hsp70, Hsp90, and Hsp105): increased | cell death (cell model): inhibited | expression of HSPs in the central nervous system (HSPs): up-regulated | amyloid oligomer levels and aggregates (amyloid oligomer): reduces | amyloid oligomer levels and aggregates (amyloid oligomer; oral administration): reduces | solubility in water: practically insoluble
